Experiments:
[1] = tested on: inducible form of nitric oxide synthase; assay: Inhibition of nitric oxide synthesis by nitric oxide synthase (inducible form) from cytokine-treated rat aortic smooth muscle cells; type: biochemical, adult male Fischer 344 rats
Method: Reaction mixtures were made up containing 50 μL of a working solution, 10 μL myoglobin solution (3 mg/ml), 10 μL inhibitor, 20 μL nitric oxide synthase and 10 μL water.
The working mixture was made up to contain 160 mM tris buffer, 200 μM L-arginine, 1 mM NADPH, 20 μM flavin adenine dinucleotide, 20 μM tetrahydrobiopterin in distilled water (pH adjusted to 7.6 by adding 10N NaOH).
The nitric oxide synthase was obtained as follows: Aortic smooth muscle cells were cultured by explanting segments of the medial layer of aortae from adult male Fischer 344 rats. Aortae were removed aseptically and freed of adventitial and endothelial cells by scraping both the lumenal and abluminal surfaces. Medial fragments (1-2 mm) were allowed to attach to dry Primaria 25 cm^2 tissue culture flasks (Falcon; Oxnard, Calif.) which were kept moist with growth medium until cells emerged. Cultures were fed twice weekly with medium 199 containing 10% fetal bovine serum, 25 mM HEPES, 2 mM L-glutamine, 40 μg/ml endothelial cell growth supplement (Biomedical Technologies; Stoughton, Mass.) and 10 μg/ml gentamycin (GIBCO; Grand Island, N.Y.). When primary cultures became confluent, they were passaged by trypsinization. Cells in passage 10-15 were seeded at 20,000/well. […]

pressor response = type: in vivo, rat; conditions: phenylephrine 0.1 to 10 μg/kg, angiotensin II 0.01 to 1 μg/kg
Method: To establish that nitric oxide overproduction can result in a diminished sensitivity to pressor agents, studies in a rat model of septic hypotension, i.e., the endotoxic-, pithed-rat, are performed.
Animals are either untreated (control) or treated with endotoxin (lipopolysaccharide-treated; 15 mg/kg, i.p.) 6 hours prior to their being pithed and instrumented for blood pressure recording. Prior to pithing, mean systematic arterial pressure in control rats is about 120 mm Hg. Pressure falls about 50% after pithing of control animals and is reduced to about 25% of normal in pithed endotoxin-treated animals.
Responsiveness is restored to more than 50% of the responsiveness seen in pithed control rats.

Molecule	effectiveness relative to the commercial compound (N^ω -methyl-DL-arginine), based on the concentration necessary to inhibit 50% [1]	pressor effect in pithed control rats (pressor response)	pressor effect in pithed endotoxic rats (pressor response)
CC(N)(CCCNC(=N)NN)C(=O)O (racemic) [α-methyl-N^ω -amino-DL-arginine, α-Methyl-N^ω -Amino-DL-Arginine]	about twice as effective as the commercial compound	–	–
CNC[C@H](O)c1cccc(O)c1 [phenylephrine]	–	strong pressor effect	negligible effect
angiotensin II: listed among suitable α1 -adrenergic agonists; pressor agent (DRVYIHPF; Angiotensin-2; UniProt P01019 25-32, looked up)	–	strong pressor effect	negligible effect

Source: patent US5453441A, “Substituted arginines and substituted homoarginines and use thereof” (Cornell Research Foundation, Inc., priority 1994, dated 1995)
